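Interpolation was linear, between the two tested concentrations surrounding the appropriate level; five concentrations were tested over 48 hours in 96-well plates. GI50 = concentration required for 50% inhibition of growth.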 Calls of active or inactive are those of the source. Cut-off read from the data, not from the text of the source: active = GI50 up to about 1.1 µM and inactive = higher.
Legend:
Experiment in all cases: NCI tumour cell line growth inhibition, 48 h
DLD-1 = system: DLD-1
COLO 205 = system: COLO 205
OVCAR-5 = system: OVCAR-5
LOX IMVI = system: LOX IMVI
CCRF-CEM = system: CCRF-CEM
SW-620 = system: SW-620
SK-MEL-2 = system: SK-MEL-2
M14 = system: M14
K562 = system: K562
SR = system: SR
SF-295 = system: SF-295
SNB-78 = system: SNB-78
HOP-18 = system: HOP-18
RPMI-8226 = system: RPMI-8226
KM12 = system: KM12
SK-MEL-28 = system: SK-MEL-28
SK-MEL-5 = system: SK-MEL-5
U-251 = system: U-251
SNB-75 = system: SNB-75
DMS-114 = system: DMS-114
IGROV-1 = system: IGROV-1
786-0 = system: 786-0
KM-20L2 = system: KM-20L2
MOLT-4 = system: MOLT-4
SN12C = system: SN12C
NCI-H23 = system: NCI-H23
A498 = system: A498
HT-29 = system: HT-29
UO-31 = system: UO-31
HOP-62 = system: HOP-62
HCT-116 = system: HCT-116
EKVX = system: EKVX
UACC-257 = system: UACC-257
OVCAR-4 = system: OVCAR-4
SNB-19 = system: SNB-19
OVCAR-3 = system: OVCAR-3
HL-60 = system: HL-60
TK-10 = system: TK-10
UACC-62 = system: UACC-62
OVCAR-8 = system: OVCAR-8
A549 = system: A549
Malme-3M = system: Malme-3M
NCI-H460 = system: NCI-H460
ACHN = system: ACHN
SF-539 = system: SF-539
DMS-273 = system: DMS-273
LXFL 529 = system: LXFL 529
HCT-15 = system: HCT-15
SK-OV-3 = system: SK-OV-3
NCI-H522 = system: NCI-H522
M19-MEL = system: M19-MEL
RXF 393 = system: RXF 393
HCC 2998 = system: HCC 2998
NCI-H226 = system: NCI-H226
SF-268 = system: SF-268
HOP-92 = system: HOP-92
CAKI-1 = system: CAKI-1

CN(C)CC/C(=N\Nc1c(Cl)cccc1Cl)c1ccccc1 was tested, and the GI50 (DLD-1) was 31.1 µM (inactive), the GI50 (COLO 205) was 15.6 µM (inactive) and the GI50 (OVCAR-5) was 19.2 µM (inactive). For the same compound, the GI50 (LOX IMVI) was 17.3 µM (inactive), the GI50 (CCRF-CEM) was 28.2 µM (inactive) and the GI50 (SW-620) was 17.6 µM (inactive). The GI50 (SK-MEL-2) was 18.2 µM (inactive), the GI50 (M14) was 18.2 µM (inactive) and the GI50 (K562) was 20.6 µM (inactive). The GI50 (SR) was 21.5 µM (inactive), the GI50 (SF-295) was 16 µM (inactive) and the GI50 (SNB-78) was 16.7 µM (inactive). For the same compound, the GI50 (HOP-18) was 15.1 µM (inactive), the GI50 (RPMI-8226) was 17.2 µM (inactive) and the GI50 (KM12) was 17 µM (inactive). For the same compound, the GI50 (SK-MEL-28) was 19.2 µM (inactive), the GI50 (SK-MEL-5) was 15.1 µM (inactive) and the GI50 (U-251) was 16.8 µM (inactive). For the same compound, the GI50 (SNB-75) was 15.2 µM (inactive), the GI50 (DMS-114) was 17.3 µM (inactive) and the GI50 (IGROV-1) was 26.6 µM (inactive). The GI50 (786-0) was 15.3 µM (inactive), the GI50 (KM-20L2) was 17.1 µM (inactive) and the GI50 (MOLT-4) was 23.4 µM (inactive). The GI50 (SN12C) was 28.7 µM (inactive), the GI50 (NCI-H23) was 15.6 µM (inactive) and the GI50 (A498) was 16.6 µM (inactive). The GI50 (HT-29) was 15.8 µM (inactive), the GI50 (UO-31) was 7.08 µM (inactive) and the GI50 (HOP-62) was 29.4 µM (inactive). For the same compound, the GI50 (HCT-116) was 15.3 µM (inactive), the GI50 (EKVX) was 30.3 µM (inactive) and the GI50 (UACC-257) was 17.7 µM (inactive). For the same compound, the GI50 (OVCAR-4) was 20.3 µM (inactive), the GI50 (SNB-19) was 35.1 µM (inactive) and the GI50 (OVCAR-3) was 22.8 µM (inactive). For the same compound, the GI50 (HL-60) was 16.3 µM (inactive), the GI50 (TK-10) was 16.8 µM (inactive) and the GI50 (UACC-62) was 15.8 µM (inactive). For the same compound, the GI50 (OVCAR-8) was 16.9 µM (inactive), the GI50 (A549) was 29.3 µM (inactive) and the GI50 (Malme-3M) was 21 µM (inactive). For the same compound, the GI50 (NCI-H460) was 16.3 µM (inactive), the GI50 (ACHN) was 16 µM (inactive) and the GI50 (SF-539) was 16.9 µM (inactive). For the same compound, the GI50 (DMS-273) was 16.8 µM (inactive), the GI50 (LXFL 529) was 14.8 µM (inactive) and the GI50 (HCT-15) was 17.7 µM. The GI50 (SK-OV-3) was 22.5 µM (inactive), the GI50 (NCI-H522) was 17.5 µM (inactive) and the GI50 (M19-MEL) was 18.3 µM (inactive). For the same compound, the GI50 (RXF 393) was 11.8 µM (inactive).

O=c1oc2c3ccc4ccccc4c3n(Cc3nc4ccccc4[nH]3)c2c2ccccc12 was tested, and the GI50 (DLD-1) was 5.73 µM (inactive), the GI50 (COLO 205) was 12.7 µM (inactive) and the GI50 (HCC 2998) was 40.4 µM (inactive). For the same compound, the GI50 (OVCAR-5) was > 36.2 µM (inactive), the GI50 (LOX IMVI) was 2.26 µM (inactive) and the GI50 (CCRF-CEM) was 1.07 µM (active). The GI50 (SW-620) was 2.2 µM (inactive), the GI50 (SK-MEL-2) was 41.3 µM (inactive) and the GI50 (M14) was 4.71 µM (inactive). The GI50 (K562) was 2.47 µM (inactive), the GI50 (SR) was 0.791 µM (active) and the GI50 (NCI-H226) was 7.03 µM (inactive). For the same compound, the GI50 (SF-295) was 9.14 µM (inactive), the GI50 (SNB-78) was > 100 µM (inactive) and the GI50 (HOP-18) was 7.57 µM (inactive). For the same compound, the GI50 (RPMI-8226) was 3.48 µM (inactive), the GI50 (KM12) was > 64.4 µM (inactive) and the GI50 (SK-MEL-28) was > 26.7 µM (inactive). For the same compound, the GI50 (U-251) was 4.25 µM (inactive), the GI50 (SNB-75) was 5.51 µM (inactive) and the GI50 (DMS-114) was 4.95 µM (inactive). The GI50 (IGROV-1) was > 29.3 µM (inactive), the GI50 (786-0) was 7.16 µM (inactive) and the GI50 (KM-20L2) was > 69.5 µM (inactive). The GI50 (MOLT-4) was 1.11 µM (active), the GI50 (SN12C) was 3.72 µM (inactive) and the GI50 (NCI-H23) was 4.95 µM (inactive). For the same compound, the GI50 (A498) was 24.4 µM (inactive), the GI50 (HT-29) was 4.48 µM (inactive) and the GI50 (UO-31) was 1.95 µM (inactive). The GI50 (HOP-62) was 4.16 µM (inactive), the GI50 (HCT-116) was 4.72 µM (inactive) and the GI50 (EKVX) was 23.6 µM (inactive). The GI50 (UACC-257) was 5.01 µM (inactive), the GI50 (OVCAR-4) was 24.9 µM (inactive) and the GI50 (SNB-19) was 4.5 µM (inactive). For the same compound, the GI50 (OVCAR-3) was 7.08 µM (inactive), the GI50 (HL-60) was 3.7 µM (inactive) and the GI50 (TK-10) was > 100 µM (inactive). For the same compound, the GI50 (UACC-62) was 3.28 µM (inactive), the GI50 (OVCAR-8) was 13.7 µM (inactive) and the GI50 (A549) was 5.61 µM (inactive). The GI50 (Malme-3M) was > 100 µM (inactive), the GI50 (SF-268) was 15.6 µM (inactive) and the GI50 (HOP-92) was > 29.3 µM (inactive). The GI50 (NCI-H460) was 0.518 µM (active), the GI50 (ACHN) was 3.89 µM (inactive) and the GI50 (SF-539) was 3.54 µM (inactive). The GI50 (LXFL 529) was 9.66 µM (inactive), the GI50 (HCT-15) was 1.37 µM and the GI50 (SK-OV-3) was > 100 µM (inactive). For the same compound, the GI50 (NCI-H522) was 4.42 µM (inactive), the GI50 (M19-MEL) was 5.46 µM (inactive) and the GI50 (CAKI-1) was 3.77 µM (inactive). The GI50 (RXF 393) was 9.4 µM (inactive).

With COc1ccc(CN2CCC/C=C/CC(Cl)(Cl)C2=O)cc1 the GI50 (DLD-1) was 31.6 µM (inactive), the GI50 (COLO 205) was 20.4 µM (inactive) and the GI50 (HCC 2998) was 35.3 µM (inactive). The GI50 (OVCAR-5) was 42.7 µM (inactive), the GI50 (LOX IMVI) was 39.3 µM (inactive) and the GI50 (CCRF-CEM) was 35.5 µM (inactive). For the same compound, the GI50 (SW-620) was 49.4 µM (inactive), the GI50 (SK-MEL-2) was 19.8 µM (inactive) and the GI50 (M14) was 20.1 µM (inactive). The GI50 (K562) was 35.6 µM (inactive), the GI50 (SR) was 24.1 µM (inactive) and the GI50 (SF-295) was 20.5 µM (inactive). The GI50 (HOP-18) was 56.6 µM (inactive), the GI50 (RPMI-8226) was 24.3 µM (inactive) and the GI50 (KM12) was 36.6 µM (inactive). For the same compound, the GI50 (SK-MEL-28) was 46.7 µM (inactive), the GI50 (SK-MEL-5) was 18 µM (inactive) and the GI50 (U-251) was 34.1 µM (inactive). The GI50 (SNB-75) was 15.1 µM (inactive), the GI50 (DMS-114) was 24.7 µM (inactive) and the GI50 (IGROV-1) was 38.4 µM (inactive). The GI50 (786-0) was 35.8 µM (inactive), the GI50 (KM-20L2) was 49.4 µM (inactive) and the GI50 (MOLT-4) was 22.8 µM (inactive). The GI50 (SN12C) was 37.9 µM (inactive), the GI50 (NCI-H23) was 27.2 µM (inactive) and the GI50 (A498) was 19.2 µM (inactive). For the same compound, the GI50 (HT-29) was 35.8 µM (inactive), the GI50 (UO-31) was 21.2 µM (inactive) and the GI50 (HOP-62) was 50.9 µM (inactive). For the same compound, the GI50 (HCT-116) was 31.3 µM (inactive), the GI50 (OVCAR-4) was 23 µM (inactive) and the GI50 (SNB-19) was 25.2 µM (inactive). The GI50 (OVCAR-3) was 34.8 µM (inactive), the GI50 (HL-60) was 28.2 µM (inactive) and the GI50 (TK-10) was 29.7 µM (inactive). For the same compound, the GI50 (UACC-62) was 43 µM (inactive), the GI50 (OVCAR-8) was 40 µM (inactive) and the GI50 (A549) was 35 µM (inactive). For the same compound, the GI50 (Malme-3M) was 23.8 µM (inactive), the GI50 (SF-268) was 26.6 µM (inactive) and the GI50 (HOP-92) was 14.5 µM (inactive). The GI50 (NCI-H460) was 29.4 µM (inactive), the GI50 (ACHN) was 21 µM (inactive) and the GI50 (SF-539) was 33.6 µM (inactive). The GI50 (DMS-273) was 38.8 µM (inactive), the GI50 (LXFL 529) was 31.4 µM (inactive) and the GI50 (HCT-15) was 34.2 µM. The GI50 (SK-OV-3) was 27.9 µM (inactive), the GI50 (NCI-H522) was 19.8 µM (inactive) and the GI50 (M19-MEL) was 29.2 µM (inactive). The GI50 (CAKI-1) was 38.4 µM (inactive) and the GI50 (RXF 393) was 17 µM (inactive).
